From patent publication US11352359B2, “PI3K protein kinase inhibitors” (Rhizen Pharmaceuticals SA, priority 2013, dated 2022)
Counter-ions that a name gives are not always drawn.

How the values were obtained:
PI3Kγ = PI3Kγ (Homo sapiens, UniProt P48736); assay: Fluorescent determination of PI3Kinase enzyme activity (HTRF), PI3Kγ; type: biochemical; details: for inhibition at 0.1 µM: 100 nM (underlined values: 300 nM)
Text: (§1) Fluorescent Determination of PI3Kinase Enzyme Activity
(§2) Phosphoinositide 3 kinases (PI3K) belong to a class of Lipid kinases that play a critical role in the regulation of several key cellular processes. The PI3K are capable of phosphorylating the 3-hydroxy position of phosphoinositols thereby generating second messengers involved in downstream signalling events. The homogenous time resolved fluorescence (HTRF) assay allows detection of 3,4,5-triphosphate (PIP3) formed as a result of phosphorylation of phosphotidylinositol 4,5-biphosphate (PIP2) by PI3K isoforms such as α, […], γ or δ.
(§3) PI3K isoform activity for α, β, γ or δ is to be determined using a PI3K human HTRF™ Assay Kit (Millipore, Billerica, Mass.) with modifications. All incubations were carried out at room temperature. Briefly, 0.5 μl of 40× inhibitor (in 100% DMSO) or 100% DMSO were added to each well of a 384-well black plate (Greiner Bio-One, Monroe, N.C.) containing 14.5 μl 1× reaction buffer/PIP2 (10 mM MgCl2, 5 mM DTT, 1.38 μM PIP2) mix with or without enzyme and incubated for 10 min. After the initial incubation, 5 μl/well of 400 μM ATP was added and incubated for an additional 30 minutes. Reaction was terminated by adding 5 μl/well stop solution (Millipore, Billerica, Mass.). Five microliters of detection mix (Millipore, Billerica, Mass.) were then added to each well and was incubated for 6-18 h in the dark. HRTF ratio was measured on a microplate reader (BMG Labtech, Germany) at an excitation wavelength of 337 nm and emission wavelengths of 665 and 620 nm with an integration time of 400 μsec. Data was analyzed using Graphpad Prism (Graphpad software; San Diego Calif.) for IC50 determination).

PI3Kβ = PI3Kβ (Homo sapiens, UniProt P42338); assay: Fluorescent determination of PI3Kinase enzyme activity (HTRF), PI3Kβ; type: biochemical
Chain of PI3Kβ (P42338 whole entry): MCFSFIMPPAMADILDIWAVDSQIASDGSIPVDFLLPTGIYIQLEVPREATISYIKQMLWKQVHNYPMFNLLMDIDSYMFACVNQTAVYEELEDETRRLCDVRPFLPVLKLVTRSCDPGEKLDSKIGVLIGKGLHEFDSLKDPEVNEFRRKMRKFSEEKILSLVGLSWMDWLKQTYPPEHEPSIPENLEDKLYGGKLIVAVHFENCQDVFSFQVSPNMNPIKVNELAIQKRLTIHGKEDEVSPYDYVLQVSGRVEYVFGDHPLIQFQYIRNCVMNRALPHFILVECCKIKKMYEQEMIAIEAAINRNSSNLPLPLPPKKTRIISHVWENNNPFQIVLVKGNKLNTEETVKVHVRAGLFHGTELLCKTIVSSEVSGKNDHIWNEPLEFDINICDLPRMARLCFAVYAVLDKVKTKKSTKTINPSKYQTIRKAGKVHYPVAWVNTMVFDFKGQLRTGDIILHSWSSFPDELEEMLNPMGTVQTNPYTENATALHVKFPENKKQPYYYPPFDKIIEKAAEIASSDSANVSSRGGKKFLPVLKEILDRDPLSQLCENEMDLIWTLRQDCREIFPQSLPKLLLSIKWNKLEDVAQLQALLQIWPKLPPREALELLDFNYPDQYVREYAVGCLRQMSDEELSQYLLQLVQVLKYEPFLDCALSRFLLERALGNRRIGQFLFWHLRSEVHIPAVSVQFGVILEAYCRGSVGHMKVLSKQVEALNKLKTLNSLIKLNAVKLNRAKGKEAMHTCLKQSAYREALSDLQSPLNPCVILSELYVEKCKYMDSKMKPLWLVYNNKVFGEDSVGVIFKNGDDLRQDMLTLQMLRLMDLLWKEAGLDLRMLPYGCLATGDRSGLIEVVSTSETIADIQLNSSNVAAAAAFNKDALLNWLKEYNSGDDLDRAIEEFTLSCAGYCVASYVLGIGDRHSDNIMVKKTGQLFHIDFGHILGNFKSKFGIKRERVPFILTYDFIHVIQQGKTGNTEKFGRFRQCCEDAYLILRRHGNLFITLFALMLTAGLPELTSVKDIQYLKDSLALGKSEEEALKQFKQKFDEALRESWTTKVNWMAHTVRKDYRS
Chain of PI3Kβ (P27986 whole entry partner): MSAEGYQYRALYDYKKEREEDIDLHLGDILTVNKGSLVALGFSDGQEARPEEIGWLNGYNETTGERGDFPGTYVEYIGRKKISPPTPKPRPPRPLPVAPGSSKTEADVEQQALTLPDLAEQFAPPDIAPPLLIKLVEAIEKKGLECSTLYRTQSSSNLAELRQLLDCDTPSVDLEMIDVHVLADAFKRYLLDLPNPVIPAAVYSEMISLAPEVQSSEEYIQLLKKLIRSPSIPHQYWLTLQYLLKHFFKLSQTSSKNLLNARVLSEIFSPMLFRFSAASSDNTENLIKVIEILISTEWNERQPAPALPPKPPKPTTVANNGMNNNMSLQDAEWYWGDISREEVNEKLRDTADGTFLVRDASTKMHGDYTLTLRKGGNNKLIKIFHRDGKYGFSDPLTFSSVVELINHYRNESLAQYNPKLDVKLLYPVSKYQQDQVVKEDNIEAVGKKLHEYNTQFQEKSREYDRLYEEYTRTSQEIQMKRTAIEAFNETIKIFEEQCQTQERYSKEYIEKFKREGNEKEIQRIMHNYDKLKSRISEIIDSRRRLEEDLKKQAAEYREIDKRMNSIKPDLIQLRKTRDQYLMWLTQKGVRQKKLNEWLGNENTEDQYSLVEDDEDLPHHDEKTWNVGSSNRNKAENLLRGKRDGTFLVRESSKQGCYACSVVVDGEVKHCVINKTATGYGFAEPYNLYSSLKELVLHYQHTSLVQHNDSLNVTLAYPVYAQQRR
Text: as §1, §2, §3

PI3Kδ = PI3Kδ (Homo sapiens, UniProt O00329); assay: Fluorescent determination of PI3Kinase enzyme activity (HTRF), PI3Kδ; type: biochemical; details: for inhibition at 0.1 µM: 100 nM (underlined values: 300 nM)
Chain of PI3Kδ (O00329 whole entry): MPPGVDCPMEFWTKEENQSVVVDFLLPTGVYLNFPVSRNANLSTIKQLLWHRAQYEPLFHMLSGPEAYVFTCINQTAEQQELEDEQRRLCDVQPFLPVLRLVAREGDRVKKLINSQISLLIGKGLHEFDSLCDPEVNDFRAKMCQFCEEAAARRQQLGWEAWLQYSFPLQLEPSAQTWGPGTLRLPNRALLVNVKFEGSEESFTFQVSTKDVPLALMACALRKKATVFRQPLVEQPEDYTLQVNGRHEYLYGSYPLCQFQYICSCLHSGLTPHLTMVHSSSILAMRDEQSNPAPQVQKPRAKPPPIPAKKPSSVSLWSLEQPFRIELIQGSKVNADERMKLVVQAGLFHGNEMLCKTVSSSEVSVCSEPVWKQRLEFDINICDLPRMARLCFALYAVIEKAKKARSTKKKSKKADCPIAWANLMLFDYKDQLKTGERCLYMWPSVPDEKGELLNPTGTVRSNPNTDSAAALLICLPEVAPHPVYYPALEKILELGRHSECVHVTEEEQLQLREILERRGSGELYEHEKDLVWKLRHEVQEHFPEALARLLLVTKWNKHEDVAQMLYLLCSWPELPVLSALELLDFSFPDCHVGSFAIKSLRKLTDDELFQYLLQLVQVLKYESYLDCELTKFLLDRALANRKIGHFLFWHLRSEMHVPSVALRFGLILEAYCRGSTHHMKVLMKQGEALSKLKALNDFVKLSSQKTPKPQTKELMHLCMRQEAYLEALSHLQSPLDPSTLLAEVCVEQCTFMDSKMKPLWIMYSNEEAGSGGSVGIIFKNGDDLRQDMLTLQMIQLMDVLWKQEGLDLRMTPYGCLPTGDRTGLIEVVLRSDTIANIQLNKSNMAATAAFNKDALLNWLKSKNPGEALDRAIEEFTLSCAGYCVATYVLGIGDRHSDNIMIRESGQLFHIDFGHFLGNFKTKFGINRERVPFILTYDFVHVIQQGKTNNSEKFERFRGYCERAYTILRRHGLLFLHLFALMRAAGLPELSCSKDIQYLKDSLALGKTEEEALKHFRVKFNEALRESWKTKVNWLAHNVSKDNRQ
Chain of PI3Kδ (P27986 whole entry partner): as the sequence (P27986 whole entry partner) above
Text: as §1, §2, §3

PI3Kα = PI3Kα (Homo sapiens, UniProt P42336); assay: Fluorescent determination of PI3Kinase enzyme activity (HTRF), PI3Kα; type: biochemical
Chain of PI3Kα (P42336 whole entry): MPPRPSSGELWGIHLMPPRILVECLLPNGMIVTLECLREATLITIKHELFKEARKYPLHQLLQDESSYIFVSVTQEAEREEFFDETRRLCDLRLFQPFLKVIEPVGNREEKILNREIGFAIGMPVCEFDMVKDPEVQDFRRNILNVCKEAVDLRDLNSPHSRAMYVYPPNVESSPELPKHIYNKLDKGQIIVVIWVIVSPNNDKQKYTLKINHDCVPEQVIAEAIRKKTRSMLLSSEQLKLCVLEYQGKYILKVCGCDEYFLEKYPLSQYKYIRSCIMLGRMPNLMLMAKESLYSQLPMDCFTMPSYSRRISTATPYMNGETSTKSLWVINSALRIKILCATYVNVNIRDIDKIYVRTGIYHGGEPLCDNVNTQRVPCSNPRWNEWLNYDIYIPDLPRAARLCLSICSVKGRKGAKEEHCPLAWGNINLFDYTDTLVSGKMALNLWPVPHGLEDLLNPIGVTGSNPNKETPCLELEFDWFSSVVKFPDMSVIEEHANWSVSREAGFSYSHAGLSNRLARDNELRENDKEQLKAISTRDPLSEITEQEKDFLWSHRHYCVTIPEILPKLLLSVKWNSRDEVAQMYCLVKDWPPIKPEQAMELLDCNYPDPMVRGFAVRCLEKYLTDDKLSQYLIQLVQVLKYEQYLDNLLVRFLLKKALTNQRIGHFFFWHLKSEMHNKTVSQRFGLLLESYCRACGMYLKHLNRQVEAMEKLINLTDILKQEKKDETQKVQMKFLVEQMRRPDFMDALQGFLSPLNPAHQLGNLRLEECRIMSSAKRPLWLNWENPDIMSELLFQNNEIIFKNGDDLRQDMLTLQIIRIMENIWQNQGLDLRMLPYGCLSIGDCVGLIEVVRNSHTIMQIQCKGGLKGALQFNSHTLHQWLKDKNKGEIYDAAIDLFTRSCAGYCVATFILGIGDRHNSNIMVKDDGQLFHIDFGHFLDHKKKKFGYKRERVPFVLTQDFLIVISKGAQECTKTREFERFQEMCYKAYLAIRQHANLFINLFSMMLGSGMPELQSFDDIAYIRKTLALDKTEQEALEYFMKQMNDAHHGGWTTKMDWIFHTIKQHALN
Chain of PI3Kα (P27986 whole entry partner): as the sequence (P27986 whole entry partner) above
Text: as §1, §2, §3

Chain of PI3Kγ (P48736 whole entry): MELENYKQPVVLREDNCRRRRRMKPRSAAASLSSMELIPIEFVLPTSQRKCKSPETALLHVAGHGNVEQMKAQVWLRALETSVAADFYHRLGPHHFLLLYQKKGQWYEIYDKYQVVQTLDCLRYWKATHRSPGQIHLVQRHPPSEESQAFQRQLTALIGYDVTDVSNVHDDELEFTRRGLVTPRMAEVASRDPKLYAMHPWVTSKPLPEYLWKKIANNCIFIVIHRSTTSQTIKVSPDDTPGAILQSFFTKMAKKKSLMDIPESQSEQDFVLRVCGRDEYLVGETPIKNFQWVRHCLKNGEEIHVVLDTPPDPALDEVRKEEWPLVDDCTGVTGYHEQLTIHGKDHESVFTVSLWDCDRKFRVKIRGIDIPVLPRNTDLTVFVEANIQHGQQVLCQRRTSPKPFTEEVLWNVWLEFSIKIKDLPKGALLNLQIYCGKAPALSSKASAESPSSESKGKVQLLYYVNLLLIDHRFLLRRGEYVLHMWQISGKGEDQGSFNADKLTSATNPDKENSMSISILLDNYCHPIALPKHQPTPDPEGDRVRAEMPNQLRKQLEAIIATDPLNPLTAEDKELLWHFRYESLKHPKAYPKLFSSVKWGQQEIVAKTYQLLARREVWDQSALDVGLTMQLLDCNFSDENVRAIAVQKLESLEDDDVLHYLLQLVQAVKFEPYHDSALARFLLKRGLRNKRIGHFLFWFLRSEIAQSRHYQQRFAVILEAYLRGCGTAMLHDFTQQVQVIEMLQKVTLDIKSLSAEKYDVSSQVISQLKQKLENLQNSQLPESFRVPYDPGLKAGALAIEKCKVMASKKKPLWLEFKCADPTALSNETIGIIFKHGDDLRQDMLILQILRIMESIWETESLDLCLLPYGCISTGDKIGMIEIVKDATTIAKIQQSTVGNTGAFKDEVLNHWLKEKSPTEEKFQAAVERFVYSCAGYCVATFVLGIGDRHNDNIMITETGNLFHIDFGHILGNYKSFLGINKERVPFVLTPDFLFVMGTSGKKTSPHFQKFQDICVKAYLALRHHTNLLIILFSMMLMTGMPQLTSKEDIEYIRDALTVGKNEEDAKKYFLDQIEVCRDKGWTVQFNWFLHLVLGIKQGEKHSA

| SMILES | inhibition at 0.1 µM (PI3Kγ) | inhibition at 1 µM (PI3Kβ) | melting point | inhibition at 0.1 µM (PI3Kδ) | inhibition at 1 µM (PI3Kα) | IC50 (PI3Kγ) | IC50 (PI3Kδ) |
| --- | --- | --- | --- | --- | --- | --- | --- |
| CC(c1nc2cccc(F)c2c(=O)n1-c1ccccc1)n1nc(-c2ccc(O)c(F)c2)c2c(N)ncnc21 (centres unmarked) [Example 16, 2-(1-(4-amino-3-(3-fluoro-4-hydroxyphenyl)-1H-pyrazolo[3,4-d]pyrimidin-1-yl)ethyl)-5-fluoro-3-phenylquinazolin-4(3H)-one] | 40 to 60% | 60 to 80% | 212 to 214 °C | 40 to 60% | 0 to 10% | – | – |
| CC(c1nc2ccccc2c(=O)n1-c1ccccc1)n1nc(-c2ccc(O)c(F)c2)c2c(N)ncnc21 (centres unmarked) [Example 8, 2-(1-(4-amino-3-(3-fluoro-4-hydroxyphenyl)-1H-pyrazolo[3,4-d]pyrimidin-1-yl)ethyl)-3-phenylquinazolin-4(3H)-one] | 0 to 20% | 20 to 40% | 230 to 233 °C | 20 to 40% | 0 to 10% | – | – |
| CC(C)Oc1ccc(-c2nn(C(C)c3cc4cccc(F)c4c(=O)n3-c3ccccc3)c3ncnc(N)c23)cc1F (centres unmarked) (as salt: potassium) [Example 2, 3-(1-(4-amino-3-(3-fluoro-4-isopropoxyphenyl)-1H-pyrazolo[3,4-d]pyrimidin-1-yl)ethyl)-8-fluoro-2-phenylisoquinolin-1(2H)-one] | – | – | 264 to 266 °C | – | – | – | – |
| CC(c1cc2cccc(Cl)c2c(=O)n1-c1ccccc1)n1nc(-c2ccc(O)c(F)c2)c2c(N)ncnc21 (centres unmarked) [Example 14, 3-(1-(4-amino-3-(3-fluoro-4-hydroxyphenyl)-1H-pyrazolo[3,4-d]pyrimidin-1-yl)ethyl)-8-chloro-2-phenylisoquinolin-1(2H)-one] | 80 to 100% | 60 to 80% | 218 to 219 °C | 60 to 80% | 20 to 40% | – | – |
| CC(c1nc2ccc(F)cc2c(=O)n1-c1ccccc1)n1nc(-c2ccc(O)c(F)c2)c2c(N)ncnc21 (centres unmarked) [Example 13, 2-(1-(4-amino-3-(3-fluoro-4-hydroxyphenyl)-1H-pyrazolo[3,4-d]pyrimidin-1-yl)ethyl)-6-fluoro-3-phenylquinazolin-4(3H)-one] | 20 to 40% | 10 to 20% | 231 to 232 °C | 20 to 40% | 0 to 10% | – | – |
| CC(C)Oc1ccc(-c2nn(C(C)c3cc4cccc(Cl)c4c(=O)n3-c3ccccc3)c3ncnc(N)c23)cc1F (centres unmarked) [Example 1, 3-(1-(4-amino-3-(3-fluoro-4-isopropoxyphenyl)-1H-pyrazolo[3,4-d]pyrimidin-1-yl)ethyl)-8-chloro-2-phenylisoquinolin-1(2H)-one] | 0 to 20% | 0 to 10% | 164 to 166 °C | 20 to 40% | 0 to 10% | – | – |
| CC(c1cc2cccc(Cl)c2c(=O)n1-c1ccccc1)n1nc(-c2ccc(OC(F)F)c(F)c2)c2c(N)ncnc21 (centres unmarked) (as salt: potassium) [Example 17, 3-(1-(4-amino-3-(4-(difluoromethoxy)-3-fluorophenyl)-1H-pyrazolo[3,4-d]pyrimidin-1-yl)ethyl)-8-chloro-2-phenylisoquinolin-1(2H)-one] | – | – | 160 to 162 °C | – | – | – | – |
| CC(C)Oc1ccc(-c2nn(C(C)c3nc4ccc(F)cc4c(=O)n3-c3ccccc3)c3ncnc(N)c23)cc1F (centres unmarked) (as salt: potassium) [Example 4, 2-(1-(4-amino-3-(3-fluoro-4-isopropoxyphenyl)-1H-pyrazolo[3,4-d]pyrimidin-1-yl)ethyl)-6-fluoro-3-phenylquinazolin-4(3H)-one] | – | – | 215 to 218 °C | – | – | – | – |
| COc1ccc(-c2nn(C(C)c3cc4ccccc4c(=O)n3-c3ccccc3)c3ncnc(N)c23)cc1NS(C)(=O)=O (centres unmarked) [Example 9, N-(5-(4-amino-1-(1-(1-oxo-2-phenyl-1,2-dihydroisoquinolin-3-yl)ethyl)-1H-pyrazolo[3,4-d]pyrimidin-3-yl)-2-methoxyphenyl)methanesulfonamide] | 20 to 40% | 40 to 60% | 260 to 263 °C | 40 to 60% | 20 to 40% | – | – |
| CC(C)Oc1ccc(-c2nn(C(C)c3nc4ccccc4c(=O)n3-c3ccccc3)c3ncnc(N)c23)cc1F (centres unmarked) (as salt: potassium) [Example 6, 2-(1-(4-amino-3-(3-fluoro-4-isopropoxyphenyl)-1H-pyrazolo[3,4-d]pyrimidin-1-yl)ethyl)-3-phenylquinazolin-4(3H)-one] | – | – | 236 to 239 °C | – | – | – | – |
| CC(c1cc2cccc(F)c2c(=O)n1-c1ccccc1)n1nc(-c2ccc(O)c(F)c2)c2c(N)ncnc21 (centres unmarked) [Example 15, 3-(1-(4-amino-3-(3-fluoro-4-hydroxyphenyl)-1H-pyrazolo[3,4-d]pyrimidin-1-yl)ethyl)-8-fluoro-2-phenylisoquinolin-1(2H)-one] | 40 to 60% | 20 to 40% | 228 to 229 °C | 40 to 60% | 0 to 10% | – | – |
| CCC(c1nc2ccccc2c(=O)n1-c1ccccc1)n1nc(-c2ccc(OC(C)C)c(F)c2)c2c(N)ncnc21 (centres unmarked) [Example 22, 2-{1-[4-Amino-3-(3-fluoro-4-isopropoxy-phenyl)-pyrazolo[3,4-d]pyrimidin-1-yl]-propyl}-3-phenyl-3H-quinazolin-4-one] | – | – | 261 to 263 °C | – | – | – | – |
| COc1ccc(-c2nn(C(C)c3cc4cccc(Cl)c4c(=O)n3-c3ccccc3)c3ncnc(N)c23)cc1NS(C)(=O)=O (centres unmarked) [Example 20, N-(5-(4-amino-1-(1-(8-chloro-1-oxo-2-phenyl-1,2-dihydroisoquinolin-3-yl)ethyl)-1H-pyrazolo[3,4-d]pyrimidin-3-yl)-2-methoxyphenyl)methanesulfonamide] | 60 to 80% | 20 to 40% | – | 80 to 100% | 40 to 60% | – | – |

Further lines, results first:

| inhibition at 0.1 µM (PI3Kγ) | inhibition at 1 µM (PI3Kβ) | melting point | inhibition at 0.1 µM (PI3Kδ) | inhibition at 1 µM (PI3Kα) | IC50 (PI3Kγ) | IC50 (PI3Kδ) | SMILES |
| --- | --- | --- | --- | --- | --- | --- | --- |
| 20 to 40% | 20 to 40% | 230 to 232 °C | 40 to 60% | 0 to 10% | – | – | C[C@H](c1cc2ccccc2c(=O)n1-c1ccccc1)n1nc(-c2ccc(O)c(F)c2)c2c(N)ncnc21 [Example 7b, (−)-3-(1-(4-amino-3-(3-fluoro-4-hydroxyphenyl)-1H-pyrazolo[3,4-d]pyrimidin-1-yl)ethyl)-2-phenylisoquinolin-1(2H)-one] |
| 40 to 60% | 10 to 20% | 225 to 227 °C | 80 to 100% | 0 to 10% | – | – | Cc1n[nH]c2cc(-c3nn([C@H](C)c4cc5cccc(Cl)c5c(=O)n4-c4ccccc4)c4ncnc(N)c34)ccc12 [Example 21b, (−)-3-(1-(4-amino-3-(3-methyl-1H-indazol-6-yl)-1H-pyrazolo[3,4-d]pyrimidin-1-yl)ethyl)-8-chloro-2-phenylisoquinolin-1(2H)-one] |
| 0 to 20% | 20 to 40% | 192 to 195 °C | 20 to 40% | 0 to 10% | – | – | CC(C)Oc1ccc(-c2nn([C@H](C)c3nc4ccccc4c(=O)n3-c3ccccc3)c3ncnc(N)c23)cc1F [Example 6b, (−)-2-(1-(4-amino-3-(3-fluoro-4-isopropoxyphenyl)-1H-pyrazolo[3,4-d]pyrimidin-1-yl)ethyl)-3-phenylquinazolin-4(3H)-one] |
| 20 to 40% | 20 to 40% | 215 to 219 °C | 60 to 80% | 0 to 10% | – | – | C[C@H](c1cc2cccc(Cl)c2c(=O)n1-c1ccccc1)n1nc(-c2ccc(O)c(F)c2)c2c(N)ncnc21 [Example 14b, (−)-3-(1-(4-amino-3-(3-fluoro-4-hydroxyphenyl)-1H-pyrazolo[3,4-d]pyrimidin-1-yl)ethyl)-8-chloro-2-phenylisoquinolin-1(2H)-one] |
| 40 to 60% | 20 to 40% | – | 80 to 100% | 0 to 10% | 15 nM | 2.74 nM | CC(C)Oc1ccc(-c2nn([C@@H](C)c3nc4ccccc4c(=O)n3-c3ccccc3)c3ncnc(N)c23)cc1F [Example 6a, (+)-2-(1-(4-amino-3-(3-fluoro-4-isopropoxyphenyl)-1H-pyrazolo[3,4-d]pyrimidin-1-yl)ethyl)-3-phenylquinazolin-4(3H)-one] |
| 0 to 20% | 0 to 10% | – | 20 to 40% | 0 to 10% | – | – | C[C@@H](c1cc2cccc(Cl)c2c(=O)n1-c1ccccc1)n1nc(-c2ccc(OC(F)F)c(F)c2)c2c(N)ncnc21 [Example 17a, (+)-3-(1-(4-amino-3-(4-(difluoromethoxy)-3-fluorophenyl)-1H-pyrazolo[3,4-d]pyrimidin-1-yl)ethyl)-8-chloro-2-phenylisoquinolin-1(2H)-one] |
